Measured values as given in patent US20260224716A1, “PTH ANALOGS FOR THE TREATMENT OF HYPOPARATHYROIDISM” (priority 2020, published 2026).
Values joined by “and” are separate entries in the source; they are usually repeats but may differ in a detail not shown here. Equal entries are not always repeated.

What was measured:
PTH1 receptor = molecular target: T1, PTH1 receptor (Homo sapiens, UniProt Q03431); assay: Luciferase-based reporter gene assay for cAMP detection (HEK293 cells); type: cell-based; conditions: FIG. 4; luciferase reporter of cAMP production
T1 construct: expressed in transfected cells; host or cells: HEK293
T1 sequence (Q03431 27-593): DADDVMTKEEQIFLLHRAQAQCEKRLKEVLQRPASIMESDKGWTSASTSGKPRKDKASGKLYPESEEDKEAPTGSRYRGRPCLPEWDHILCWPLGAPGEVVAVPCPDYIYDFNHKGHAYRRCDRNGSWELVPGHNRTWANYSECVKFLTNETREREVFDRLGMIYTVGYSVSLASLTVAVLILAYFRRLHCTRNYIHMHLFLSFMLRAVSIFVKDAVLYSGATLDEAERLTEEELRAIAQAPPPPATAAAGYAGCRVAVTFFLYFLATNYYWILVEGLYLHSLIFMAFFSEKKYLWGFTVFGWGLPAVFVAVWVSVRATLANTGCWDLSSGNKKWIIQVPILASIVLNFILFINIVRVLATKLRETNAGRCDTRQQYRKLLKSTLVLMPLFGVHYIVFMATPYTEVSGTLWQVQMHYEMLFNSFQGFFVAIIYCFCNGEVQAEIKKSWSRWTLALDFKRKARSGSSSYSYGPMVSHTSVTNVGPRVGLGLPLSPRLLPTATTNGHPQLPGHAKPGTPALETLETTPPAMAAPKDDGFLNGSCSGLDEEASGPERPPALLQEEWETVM
Experimental: At the end of the incubation, 50 μL of Steady-Lite Plus (PerkinElmer, Waltham, MA) were added to each well. The plate was shaken briefly, incubated four minutes and light output was measured on an EnSpire Alpha Multi-mode Plate Reader (PerkinElmer, Waltham, MA).

[1] = Plasma drug levels in rats, repeat daily dosing 7 days, LCMS (Example 13); type: in vivo, Sprague-Dawley rats; conditions: daily SC dosing
Experimental: (§1) Female Sprague-Dawley rats were single or double-housed and randomly assigned to four groups (n=5-6 per group) as described in Table 20, and then weighed.
(§2) After the treatment ceased, the animals were monitored on days 9 and 11 (washout period).
(§3) Body weight and food intake were measured on days 0, 1, 3, 5 and 7. Ca was measured on days 0, 1, 2, 3, 4, 7, 9 and 11. Pi was determined on the same samples, except for days 9 and 11.

PTHR1 = molecular target: T2, PTHR1 (Homo sapiens, UniProt Q03431); assay: cAMP Hunter Teriparatide Bioassay (CHO-K1 PTHR1 cells); type: cell-based
T2 construct: host or cells: CHO-K1
T2 sequence (Q03431 27-593): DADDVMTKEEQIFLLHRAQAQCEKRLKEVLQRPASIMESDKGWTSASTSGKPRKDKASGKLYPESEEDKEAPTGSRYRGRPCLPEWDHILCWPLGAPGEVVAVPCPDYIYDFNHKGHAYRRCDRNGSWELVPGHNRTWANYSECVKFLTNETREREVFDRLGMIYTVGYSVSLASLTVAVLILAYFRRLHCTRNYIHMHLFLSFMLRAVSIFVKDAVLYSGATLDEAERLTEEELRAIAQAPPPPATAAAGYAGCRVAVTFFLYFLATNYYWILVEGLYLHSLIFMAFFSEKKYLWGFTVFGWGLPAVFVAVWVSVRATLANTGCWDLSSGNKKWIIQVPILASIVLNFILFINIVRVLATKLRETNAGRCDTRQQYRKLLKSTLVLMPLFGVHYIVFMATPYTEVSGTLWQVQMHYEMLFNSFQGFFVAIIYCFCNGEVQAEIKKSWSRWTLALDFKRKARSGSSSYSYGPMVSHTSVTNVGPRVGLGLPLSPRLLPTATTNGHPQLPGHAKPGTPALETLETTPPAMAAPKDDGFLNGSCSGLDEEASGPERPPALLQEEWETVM
Experimental: The assessment of the bioactivity of a prodrug relative to its drug form was conducted in a proprietary commercial assay as contracted with Eurofins-Discover Rx Corporation win a cAMP Hunter® Teriparatide Bioassay (95-0118Y2). An 11-point dose curve in agonist mode was conducted for each individual peptide or incubation condition. Every sample was run at each dose in triplicate.
An 11-point dose curve in agonist mode was conducted for each individual peptide or incubation condition. Every sample was run at each dose in triplicate.
An 11-point dose curve in agonist mode was conducted for each individual peptide at each concentration. Every sample was run at each dose in triplicate.

serum calcium [2] = assay: Pharmacology in normal mice: serum calcium (Example 6); type: in vivo, C57Bl6/J mice; conditions: FIG. 5C, 20 or 40 nmol/kg SC, 24 and 48 hours
Experimental: Each group of mice was bled immediately before the injection and after 24 and 48 hours. Blood was centrifuges and serum was collected and stored at −20 C. Calcium concentrations were determined used commercially available assays following the manufacturer's instructions.

serum calcium [3] = assay: Serum calcium in mice after single subcutaneous SEQ ID NO: 77 (Example 9); type: in vivo, C57BL/6J mice; conditions: for Percent change of serum Ca levels: 24 hr vs 0 hr
Experimental: Absorbance (Ab) was measured at 650 nm wavelength. Manufacturer linearity is provided up to 15 mg/dl. […] This difference was statistically significant at 24 hours when accounting for the initial baseline levels (FIG. 14B). There was an increase in serum Ca at 24 hours following the dose of 40 nmol/kg.

[4] = Pharmacokinetics in rats after single subcutaneous dose, LCMS (Example 10)
Text: Female Sprague-Dawley rats were randomly distributed among four groups with five or six rats per group. […] Dose volume was based on body weight and recorded prior to dosing.

serum phosphate [5] = assay: Serum phosphate in rats, repeat daily dosing 7 days (Example 13); type: in vivo, Sprague-Dawley rats; conditions: daily SC, SEQ ID NO: 77 20 nmol/kg
Experimental: as §1, §2, §3

serum calcium [6] = assay: Serum calcium in rats, repeat daily dosing 7 days (Example 13); type: in vivo, Sprague-Dawley rats; conditions: daily SC 7 days; SEQ ID NO: 77 20 nmol/kg, SEQ ID NO: 87 20 or 40 nmol/kg; returned to initial values after washout
Experimental: as §1, §2, §3

[7] = Pharmacokinetics of SEQ ID 87 in monkeys, single subcutaneous dose (Example 17); type: in vivo, cynomolgus monkeys
Experimental: A total of three monkeys were used at each test dose. The monkeys ranged in age from 2-4 years old at beginning of the study and having a weight of at least 2.5 kg. The dose volume was 0.3 mL/kg. Individual dose volumes were calculated based on the animals' most recently recorded body weight.
Animals were not fasted prior to collection. Blood was be collected via the femoral vein (or another appropriate site). Blood samples were maintained at 5±3° C. (wet ice or equivalent) and centrifuged at 5±3° C. within 1 hour of the collection of each blood sample. The resultant plasma was transferred to a tube and then stored under conditions set to maintain −75±15° C. until analysis.
Pharmacokinetic mean concentration-time data was analyzed using non-compartmental methods (Phoenix® WinNonlin® Version 7.0 or higher) based on the route of administration. The following parameters were calculated whenever possible and as data allows: Cmax, Tmax, and AUC. Descriptive statistics were generated using Phoenix WinNonlin.

serum calcium [8] = assay: Pharmacology in normal rats: serum calcium (Example 5); type: in vivo, Sprague Dawley rats; conditions: FIG. 5A; 20, 40, 80 nmol/kg SC, dose-responsive over 72 hours
Experimental: (§4) Each group of rats was bled immediately before the injection and after 6, 24, 48 and 72 hours. Blood was spun and serum was collected and stored at −20° C. Calcium and phosphorous concentrations were determined used commercially available assays following the manufacturer's instructions.

serum phosphate [9] = assay: Pharmacology in normal rats: serum phosphate (Example 5); type: in vivo, Sprague Dawley rats; conditions: FIG. 5B; 20, 40, 80 nmol/kg SC, dose-responsive over 72 hours
Experimental: as §4

[10] = system: calcium urinary excretion; conditions: humans, 100 ug subcutaneous; adequate control limited to only ⅓ of the day; cited from earlier work
[11] = rats, SEQ ID NO: 77 30 nmol/kg SC
[12] = rats, after SEQ ID NO: 87 30 nmol/kg SC

## CC[C@H](C)[C@H](NC(=O)[C@H](CCC(=O)O)NC(=O)[C@H](CO)NC(=O)[C@@H](NC(=O)[C@@H](N)CO)C(C)C)C(=O)N[C@@H](CCC(N)=O)C(=O)N[C@@H](CC(C)C)C(=O)N[C@@H](CCSC)C(=O)N[C@@H](Cc1c[nH]cn1)C(=O)N[C@@H](CC(N)=O)C(=O)N[C@@H](CC(C)C)C(=O)NCC(=O)N[C@@H](CCCCN)C(=O)N[C@@H](Cc1c[nH]cn1)C(=O)N[C@@H](CC(C)C)C(=O)N[C@@H](CC(N)=O)C(=O)N[C@@H](CO)C(=O)N[C@@H](CCSC)C(=O)N[C@@H](CCC(=O)O)C(=O)N[C@@H](CCCNC(=N)N)C(=O)N[C@H](C(=O)N[C@@H](CCC(=O)O)C(=O)N[C@@H](Cc1c[nH]c2ccccc12)C(=O)N[C@@H](CC(C)C)C(=O)N[C@@H](CCCNC(=N)N)C(=O)N[C@@H](CCCCN)C(=O)N[C@@H](CCCCN)C(=O)N[C@@H](CC(C)C)C(=O)N[C@@H](CCC(N)=O)C(=O)N[C@@H](CC(=O)O)C(=O)N[C@H](C(=O)N[C@@H](Cc1c[nH]cn1)C(=O)N[C@@H](CCCCNC(=O)CC[C@H](NC(=O)COCCOCCNC(=O)COCCOCCNC(=O)CC[C@H](NC(=O)CCCCCCCCCCCCCCCCC(=O)O)C(=O)O)C(=O)O)C(=O)O)C(C)C)C(C)C [SEQ ID NO: 77]
PTH1 receptor
  potency at the PTH receptor: retains the high potency
[1]
  daily administrations to reach steady state plasma levels: four
PTHR1; FIG. 11, active drug
  EC50: 0.01 nM
  Hillslope: 1.874
PTHR1; FIG. 12
  EC50: 0.0366 nM
  Hillslope: 2.237
PTHR1; FIG. 13A
  EC50: 0.0107 nM
  Hillslope: 2.687
PTHR1; FIG. 13B
  EC50: 0.0193 nM
  Hillslope: 2.687
PTHR1; conclusions from Table 14, FIGS. 8A-8C
  PTH agonism: inactivates the PTH agonism
Serum calcium [2]
  effect on serum calcium levels: increase serum calcium levels
Serum calcium [3]; 20 nmol/kg SC
  Percent change of serum Ca levels: 13.8%
Serum calcium [3]; 20 nmol/kg SC, 24 hr vs 0 hr (nmol/ul)
  Serum Ca change: 0.3131
Serum calcium [3]; 20 nmol/kg SC, 48 hr vs 0 hr
  Serum Ca change: 0.0709
Serum calcium [3]; 40 nmol/kg SC, 24 and 48 hours post treatment
  serum Ca levels compared to controls or 20 nmol/kg: significantly increased serum Ca levels
Serum calcium [3]; 40 nmol/kg SC
  Percent change of serum Ca levels: 26.2%
Serum calcium [3]; 40 nmol/kg SC, 24 hr vs 0 hr (nmol/uL)
  Serum Ca change: 0.631
Serum calcium [3]; 40 nmol/kg SC, 48 hr vs 0 hr
  Serum Ca change: 0.073
Serum calcium [3]; Group F (20 nmol/kg by match with Table 11), 0 hour
  Serum Calcium Conc., individual mouse: 8.9502 mg/dl and 2.2375 nmol/uL and 8.8662 mg/dl and 2.2165 nmol/uL and 9.3810 mg/dl and 2.3453 nmol/uL and 9.3774 mg/dl and 2.3443 nmol/uL and 10.2136 mg/dl and 2.5534 nmol/uL and 9.6513 mg/dl and 2.4128 nmol/uL and 8.7165 mg/dl and 2.1791 nmol/uL and 7.4968 mg/dl and 1.8742 nmol/uL
Serum calcium [3]; Group F (20 nmol/kg by match with Table 11), 24 hours
  Serum Calcium Conc., individual mouse: 9.1693 mg/dl and 2.2923 nmol/uL and 9.4988 mg/dl and 2.3747 nmol/uL and 9.8423 mg/dl and 2.4606 nmol/uL and 11.4721 mg/dl and 2.8680 nmol/uL and 10.9604 mg/dl and 2.7401 nmol/uL and 10.4767 mg/dl and 2.6192 nmol/uL and 9.1062 mg/dl and 2.2766 nmol/uL and 12.1451 mg/dl and 3.0363 nmol/uL
Serum calcium [3]; Group F (20 nmol/kg by match with Table 11), 48 hours
  Serum Calcium Conc., individual mouse: 8.8303 mg/dl and 2.2076 nmol/uL and 9.1467 mg/dl and 2.2867 nmol/uL and 8.8431 mg/dl and 2.2108 nmol/uL and 7.3666 mg/dl and 1.8416 nmol/uL and 8.7057 mg/dl and 2.1764 nmol/uL and 9.7411 mg/dl and 2.4353 nmol/uL and 8.7472 mg/dl and 2.1868 nmol/uL and 9.0029 mg/dl and 2.2507 nmol/uL
Serum calcium [3]; Group G (40 nmol/kg by match with Table 11), 0 hour
  Serum Calcium Conc., individual mouse: 9.4650 mg/dl and 2.3663 nmol/uL and 10.0310 mg/dl and 2.5078 nmol/uL and 9.9105 mg/dl and 2.4776 nmol/uL and 8.8662 mg/dl and 2.2165 nmol/uL and 10.1369 mg/dl and 2.5342 nmol/uL and 10.6007 mg/dl and 2.6502 nmol/uL and 9.6001 mg/dl and 2.4000 nmol/uL and 8.5266 mg/dl and 2.1316 nmol/uL
Serum calcium [3]; Group G (40 nmol/kg by match with Table 11), 24 hours
  Serum Calcium Conc., individual mouse: 13.6768 mg/dl and 3.4192 nmol/uL and 11.5422 mg/dl and 2.8856 nmol/uL and 12.7305 mg/dl and 3.1826 nmol/uL and 11.5563 mg/dl and 2.8891 nmol/uL and 13.0880 mg/dl and 3.2720 nmol/uL and 11.5633 mg/dl and 2.8908 nmol/uL and 11.7070 mg/dl and 2.9267 nmol/uL and 11.4651 mg/dl and 2.8663 nmol/uL
Serum calcium [3]; Group G (40 nmol/kg by match with Table 11), 48 hours
  Serum Calcium Conc., individual mouse: 10.2589 mg/dl and 2.5647 nmol/uL and 9.0764 mg/dl and 2.2691 nmol/uL and 10.0607 mg/dl and 2.5152 nmol/uL and 9.2554 mg/dl and 2.3138 nmol/uL and 9.9968 mg/dl and 2.4992 nmol/uL and 9.9425 mg/dl and 2.4856 nmol/uL and 10.6168 mg/dl and 2.6542 nmol/uL and 10.2429 mg/dl and 2.5607 nmol/uL
Serum calcium [3]; all treatments, 20 or 40 nmol/kg SC
  serum Ca at 48 hours post treatment: returned to near starting levels
[4]; female, Sprague-Dawley, rat, serum, sc, 30 nmol/kg
  level at time molar at 2 h: > 100 nM
[4]; [11]
  time at baseline level: 96 h
  time of peak concentration: seven
[4]; rats, SEQ ID NO: 77 30 nmol/kg SC, at 48 h
  concentration as fraction of the Cmax: ⅓
[4]; [12]
  time of peak of drug formed from prodrug: 24 h
  time of return to baseline, drug formed from prodrug: one week
Serum phosphate [5]
  serum Pi on day 3 versus vehicle and SEQ ID NO: 87 40 nmol/kg: differed significantly
Serum calcium [6]
  Serum Ca levels during the treatment period: gradually increased
[7]; after SEQ ID No 87 2.5, 3.75, 5 nmol/kg SC
  time of peak concentration of drug formed from prodrug: 48 to 72 h
[7]; drug formed from prodrug, at one week
  concentration as fraction of the Cmax concentration: approximately ⅔

## SVSEIQLMHNLGKHLNSMERVEWLRKKLQDVHK(γE-COC16H32CO2H)F-OH (SVSEIQLMHNLGKHLNSMERVEWLRKKLQDVHXF; K33 γE-diacidC18 acylation; C-terminal acid; SITE 33 MISC_FEATURE - Xaa at position 33 is Lys wherein the side chain is acylated with COC16H32CO2H via a gamma Glu spacer; listed as Homo sapiens) [SEQ ID NO: 102, PTH(1-34), K33(γE-diacidC18)]
Serum calcium [8]
  effect on serum calcium levels: increase serum calcium levels
Serum calcium [2]
  effect on serum calcium levels: increase serum calcium levels
Serum phosphate [9]
  effect on serum phosphate: reduce serum phosphate

B1: Natpara: NPS/Shire's Natpara® (rhPTH), approved by the FDA in January of 2015 (protein, listed as Homo sapiens)
chain: SVSEIQLMHNLGKHLNSMERVEWLRKKLQDVHNFVALGAPLAPRDAGSQRPRKKEDNVLVESHEKSLGEADKADVNVLTKAKSQ
[10]
  duration of action on calcium: insufficient duration of action
